Experimental data published in the NIST ThermoML archive (doi:10.1016/j.jct.2012.06.031).
± gives the expanded uncertainty stated by the source.

Experiment: xn = mol fraction of the nth substance listed
Conditions: 101 kPa, Liquid; for viscosity: Concentric cylinders viscometry; for mass density: Vibrating tube method

OCCCO [propan-1,3-diol] + c1ccncc1
Conditions	mass density, 288.15 K [kg/m3]	mass density, 293.15 K [kg/m3]	mass density, 298.15 K [kg/m3]	mass density, 303.15 K [kg/m3]	viscosity, 288.15 K [mPa·s]	viscosity, 293.15 K [mPa·s]	viscosity, 298.15 K [mPa·s]	viscosity, 303.15 K [mPa·s]
x2 = 0	1056.12 ± 0.95	1053.02 ± 0.95	1049.91 ± 0.94	1046.79 ± 0.93	66.53 ± 0.72	51.91 ± 0.53	41.04 ± 0.44	32.84 ± 0.35
x2 = 0.0999	1050.49 ± 0.79	1047.19 ± 0.78	1043.89 ± 0.77	1040.57 ± 0.77	50.57 ± 0.47	39.57 ± 0.39	31.39 ± 0.31	25.21 ± 0.25
x2 = 0.2	1044.96 ± 0.64	1041.48 ± 0.63	1037.98 ± 0.63	1034.47 ± 0.62	35.44 ± 0.32	27.99 ± 0.25	22.36 ± 0.2	18.15 ± 0.16
x2 = 0.3	1038.93 ± 0.51	1035.25 ± 0.5	1031.55 ± 0.5	1027.85 ± 0.49	23 ± 0.19	18.46 ± 0.15	14.91 ± 0.12	12.34 ± 0.1
x2 = 0.4001	1032.58 ± 0.39	1028.71 ± 0.39	1024.82 ± 0.38	1020.93 ± 0.38	14.29 ± 0.11	11.68 ± 0.088	9.617 ± 0.072	8.079 ± 0.061
x2 = 0.5	1025.96 ± 0.29	1021.91 ± 0.29	1017.85 ± 0.29	1013.76 ± 0.28	8.708 ± 0.06	7.266 ± 0.049	6.147 ± 0.042	5.244 ± 0.036
x2 = 0.5999	1018.97 ± 0.22	1014.73 ± 0.22	1010.48 ± 0.22	1006.21 ± 0.21	5.207 ± 0.033	4.467 ± 0.028	3.867 ± 0.025	3.38 ± 0.022
x2 = 0.7	1011.77 ± 0.17	1007.35 ± 0.17	1002.91 ± 0.17	998.466 ± 0.17	3.264 ± 0.019	2.869 ± 0.017	2.54 ± 0.016	2.266 ± 0.015
x2 = 0.7998	1004.3 ± 0.14	999.687 ± 0.14	995.061 ± 0.14	990.425 ± 0.14	2.111 ± 0.013	1.897 ± 0.012	1.715 ± 0.011	1.557 ± 0.011
x2 = 0.8998	996.608 ± 0.12	991.803 ± 0.12	986.987 ± 0.12	982.158 ± 0.12	1.46 ± 0.01	1.336 ± 0.0099	1.228 ± 0.0096	1.132 ± 0.0093
